In patent US12558342B2, “2-[2-({12,12-dimethyl-4-oxo-6-phenyl-3,11-dioxatricyclo[8.4.0.0,2,7]tetradeca-1,5,7,9-tetraen-8-yl}oxy)acetamido]benzamide and derivatives as inhibitor of clock:bmal1 interaction for the treatment of circadian rhythm diseases and disorders” (KOC UNIVERSITESI, priority 2019, dated 2026):

Key:
[1] = test system: Clock-deficient MDA MB231 cells; assay: Bmal1::dluc rhythm in Clock knockout MDA MB231 cells; format: cell-based; conditions: Clock knockout MDA MB231, different concentrations
Description: (§1) We used Bmal1::dluc U2-OS and Per1::dluc NIH 3T3, and continuously monitored the bioluminescence to record circadian rhythm. This experiment was performed in 96-well plates (triplicates) and 35-mm dishes (duplicates) in the secondary screen and detailed characterization steps respectively. Briefly, cells were seeded to reach confluency. A day after, the medium was replaced with DMEM containing 0.1 μM Dexamethasone to synchronize cells. […] The 96-well plates were covered and bioluminescence was monitored by Synergy H1 Hybrid Multi-Mode Reader every 32 minutes. […] Bioluminescence was recorded every 10 minutes for 4-6 days. […] The first day's data was excluded from the analysis due to transient perturbations of luminescence after the medium change.
(§2) HEK 293T cells at 75-85% confluency were transfected with […] of pLV6-Bmal-luc plasmid, 9 ng of pCMV-AR8.2dvpr packaging vector and 1 ng of pCMV-VSVG envelope vector for 16 h. […] At 72-hour post-transduction, the circadian rhythms of cells monitored using Lumicycle.
(§3) We used Bmal1::dluc U2-OS and Per1::dluc NIH 3T3, and continuously monitored the bioluminescence to record circadian rhythm. […] The 96-well plates were covered and bioluminescence was monitored by Synergy H1 Hybrid Multi-Mode Reader every 32 minutes. […] Bioluminescence was recorded every 10 minutes for 4-6 days. […]

[2] = biological target: T1, CLOCK (Homo sapiens, UniProt O15516); assay: Cytosol-nuclear fractionation of U2OS cells, CLOCK; format: cell-based; conditions: 20 μM, two days
T1 sequence (O15516 1-846): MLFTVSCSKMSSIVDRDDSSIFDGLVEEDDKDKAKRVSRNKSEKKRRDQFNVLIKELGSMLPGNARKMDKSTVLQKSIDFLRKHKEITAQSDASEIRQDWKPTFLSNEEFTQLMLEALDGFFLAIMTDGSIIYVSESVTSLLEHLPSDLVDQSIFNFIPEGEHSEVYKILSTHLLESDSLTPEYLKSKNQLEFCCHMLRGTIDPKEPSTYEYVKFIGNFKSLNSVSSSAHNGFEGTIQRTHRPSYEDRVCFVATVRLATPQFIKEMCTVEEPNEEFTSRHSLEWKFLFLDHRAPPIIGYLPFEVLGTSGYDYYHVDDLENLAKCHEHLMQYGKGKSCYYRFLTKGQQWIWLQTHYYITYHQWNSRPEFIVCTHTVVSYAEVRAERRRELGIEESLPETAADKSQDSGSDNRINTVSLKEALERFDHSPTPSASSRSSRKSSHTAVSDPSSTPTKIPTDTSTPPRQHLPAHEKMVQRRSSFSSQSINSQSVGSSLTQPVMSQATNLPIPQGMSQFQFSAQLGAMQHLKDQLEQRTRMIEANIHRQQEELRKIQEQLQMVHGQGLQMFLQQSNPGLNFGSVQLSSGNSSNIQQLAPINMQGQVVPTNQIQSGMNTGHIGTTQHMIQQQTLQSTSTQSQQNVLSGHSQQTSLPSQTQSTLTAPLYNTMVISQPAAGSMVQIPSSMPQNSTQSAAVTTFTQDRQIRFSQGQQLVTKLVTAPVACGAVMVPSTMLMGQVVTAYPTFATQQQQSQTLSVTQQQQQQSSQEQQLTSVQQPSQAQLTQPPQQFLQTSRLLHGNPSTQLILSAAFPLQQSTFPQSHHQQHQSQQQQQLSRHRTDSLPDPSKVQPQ
Description: U2 OS cells treated with 20 μM CLK8 and 0.5% DMSO were used for fractionation analysis. The 4×10^5 was suspended in 500 ul cytosolic lysis buffer (10 mM HEPES pH 7,9, 10 mM KCl, 0.1 mM EDTA, 0.05% NP40 with protease inhibitors) and incubated on ice for 10 minutes. The lysate was centrifuged for 3 minutes at 3000 rpm at 4° C. The resulting supernatant was centrifuged one more time and supernatant collected as cytosolic fraction. On the other hand, the resulting pellet from lysate centrifugation was suspended in nuclear lysis buffer (20 mM HEPES pH 7.9, 0.4 M NaCl, 1 mM EDTA, 10% glycerol with protease inhibitors) and sonicated 2 times 10 seconds with 60% power. After centrifuge at 15 000 g for 5 minutes at 4° C., supernatant was collected as nuclear fraction. Collected fractions were used for Western Blot analysis. Fractionation efficiency was checked with Western Blot by using tubulin (Sigma T9026) as cytosolic marker and Histone-H3 (abcam ab1791) as nuclear marker.

[3] = biological target: T1, CLOCK; assay: Pull-down assay with biotinylated CLK8, U2OS lysate with endogenous CLOCK; format: binding; set-up: expressed in transfected cells; host or cells: HEK293T
[4] = test system: wild type MDA MB231 cells; assay: Bmal1::dluc rhythm in wild type MDA MB231 cells; format: cell-based
Description: as §1, §2, §3

- level of CLOCK in the nucleus [2]: reduced
- affinity for CLOCK ([3]; endogenous CLOCK, input vs precipitated sample): high affinity for CLOCK
Structure (SMILES): CC1(C)CCc2c(cc(OCC(=O)Nc3ccccc3C(N)=O)c3c(-c4ccccc4)cc(=O)oc23)O1 [CLK8, 2-[2-({12,12-dimethyl-4-oxo-6-phenyl-3,11-dioxatricyclo [8.4.0.0,2,7]tetradeca-1,5,7,9-tetraen-8-yl}oxy)acetamido] benzamide]
- CLK8-mediated increase in Bmal1-luc intensity [1]: abolished
- other core clock components as target ([3]; except BMAL1, including NPAS2): none of the other core clock components were detected as a target
- amplitude of circadian rhythm [4]: enhance amplitude
